Measurements published in patent US20160009763A1, “PEPTIDE MOLECULAR MATERIALS” (National Chiao Tung University, priority 2014, published 2016).
Non-standard residues stand in square brackets, D forms with d. Residues, ends and D or L forms follow the SMILES beside them. ξ: configuration not given here. *: point of attachment. Phenylacetyl(2,3,4,5,6-F5) = O=C(Cc1c(F)c(F)c(F)c(F)c1F)*; Phenylacetyl(4-F) = O=C(Cc1ccc(F)cc1)*; Hydrocinnamoyl = O=C(CCc1ccccc1)*; Ile(3ξ) = CCC(C)[C@H](N)C(=O)O; PhAc = O=C(Cc1ccccc1)*; Bz = O=C(c1ccccc1)*

Tests used:
[1] = Phase inversion temperature (Tgel-sol) test of hydrogels; type: physicochemical; details: heated 2° C./min until hydrogel began to flow
Description: Hydrogels (A) to (R) were obliquely placed in water bath while a beaker including water and a thermometer was also placed in the water bath. The hydrogels were heated (2° C./min) until such hydrogels began to flow (the gel phase was changed to the sol phase). The inversion temperatures when the hydrogels began to flow were recorded, and such temperatures were the phase inversion temperatures of hydrogels.

[2] = Rheological test of hydrogels (angular frequency sweep); type: physicochemical; details: angular frequency sweep 0.1 to 100 rad/s, strain=0.8%, 25° C.
Description: In the present invention, Rheological test was performed by Anton Paar rheometer. MTT cell viability assay was performed by Sunrise absorbance microplate reader (DV990/BV4 GDV Programmable MPT reader).
Rheological tests of hydrogels were performed by Anton Paar rheometer. 25 mm parallel plate was used in the experimentation. 400 μL of hydrogels (A) to (R) were placed on the parallel plate. Angular frequency sweep test: measurement range (frequency 0.1 to 100 rad/s, strain=0.8%) is 13 points per 10 rounds. Sweep model is “logarithm (log)” and the operation temperature is 25° C.
In FIG. 3, G′ represents storage modulus, and G″ represents loss modulus. The higher G′ and G″ are, the better stability the hydrogel is.

Hela cell [3] = experiment: Wound healing assay, Hela cell; type: cell-based; details: medium with 1 wt % of hydrogel
Description: Various cells were washed with PBS (phosphate buffer) twice and were suspended in a T-75 tissue culture flask. 0.25% trypsin containing 0.1% EDTA was added and then the cells were re-suspended in 5 mL of complete medium. 30000 cells (in 3 mL of medium) were placed in each vial on a 6-well plate to form a fusion monolayer. […] 2 mL of PBS was used twice to remove the floating cells, and was then replaced with 3 mL of complete medium. The image taken at 0 hour was used as a reference point. […] The images at different hours were taken at an appropriate region. Control: no compound added.

[4] = MTT cell viability assay, MCF-7 cell; type: cell-based; details: human, MCF-7 cells, hydrogel up to 500 μM
Description: (§1) The bio-compatibility of the hydrogels prepared from the different peptide materials was measured by MTT cell viability assay.
(§2) MTT cell viability assay was performed by Sunrise absorbance microplate reader (DV990/BV4 GDV Programmable MPT reader). Various cells were seeded in a 24-well plate containing 0.5 mL medium (DMEM) with 10% fetal bovine serum (FBS) and 1% penicillin. In each well, the cell concentration was 50000 cells and cells were cultured for 24 hours. After seeding the cells, hydrogels with the different concentrations ([…]) were added. The medium in each well was replaced with the flesh medium containing 0.5 mL of MTT reagent (4 mg mL^−1) after 24 and 48 hours. After an additional 4 hours, the medium containing MTT reagent was removed and DMSO (0.5 mL/well) was added to dissolve formazan crystals. The cells in the 24-well plate were transferred to a 96-well plate. The optical densities of such obtained solutions were measured at 595 nm by Sunrise absorbance microplate reader (DV990/BV4 GDV Programmable MPT reader).
(§3) The untreated cells were used as a comparative example. The cell viability was calculated based on the following equation:
(§4) Cell viability(%)=ODsample/ODcomparative example

MCF-7 cell = experiment: MTT cell viability assay, MCF-7 cell; type: cell-based; details: Homo sapiens, MCF7, read-out: IC50 inhibition concentration
Description: as §1, §2, §3, §4

[5] = MTT cell viability assay, Hela cell; type: cell-based; details: human, HeLa cells, hydrogel up to 500 μM
Description: as §1, §2, §3, §4

Hela cell [6] = experiment: MTT cell viability assay, Hela cell; type: cell-based; details: Homo sapiens, read-out: IC50 inhibition concentration
Description: as §1, §2, §3, §4

[7] = MTT cell viability assay, CTX TNA2 cell; type: cell-based; details: rat, CTX TNA2 cells, hydrogel up to 500 μM
Description: as §1, §2, §3, §4

CTX TNA2 cell [8] = experiment: MTT cell viability assay, CTX TNA2 cell; type: cell-based; details: read-out: IC50 inhibition concentration
Description: as §1, §2, §3, §4

CTX TNA2 cell [9] = experiment: Wound healing assay, CTX TNA2 cell; type: cell-based; details: medium with 1 wt % of hydrogel, versus Control
Description: Various cells were washed with PBS (phosphate buffer) twice and were suspended in a T-75 tissue culture flask. 0.25% trypsin containing 0.1% EDTA was added and then the cells were re-suspended in 5 mL of complete medium. 30000 cells (in 3 mL of medium) were placed in each vial on a 6-well plate to form a fusion monolayer. After the adhesion for 24 hours, the cell monolayer was scratched by a p200 pipet tip to create a wound. 2 mL of PBS was used twice to remove the floating cells, and was then replaced with 3 mL of complete medium. The image taken at 0 hour was used as a reference point. The medium was replaced with 3 mL of medium containing 1 wt % of hydrogel and the plate was incubated at 37° C. and 5% CO2 for 24 hours. The images at different hours were taken at an appropriate region. Control: no compound added.

[10] = State of hydrogels at 37° C. and 4° C. (TEM images); type: physicochemical
Description: The material, technique and general process in the present invention are suitable for the following examples. All used chemical reagents and solutions can be obtained from suppliers. ^1H and ^13C spectrums were measured by Bruker DRX-300. LC-MS was measured by MICROMASS Q-Tof. TEM was measured by Hitachi HT7700 Bio-transmission electron microscope.

Row | SMILES | phase inversion temperature Tgel-sol [1] [°C] | storage modulus (G′) [2] | also measured
1 | O=C(Cc1c(F)c(F)c(F)c(F)c1F)N[C@@H](Cc1ccccc1)C(=O)O [hydrogel (A), PFB-Phe] | 56 | 2×10^3 Pa | wound healing after 48 hours (Hela cell [3]): healed completely
2 | O=C(O)CNC(=O)[C@H](Cc1ccccc1)NC(=O)Cc1c(F)c(F)c(F)c(F)c1F [hydrogel (B), PFB-Phe-Gly] | 48 | 10^4 Pa | wound healing after 48 hours (Hela cell [3]): healed completely
3 | O=C(Cc1c(F)c(F)c(F)c(F)c1F)N[C@@H](Cc1ccc(O)cc1)C(=O)N[C@@H](Cc1ccccc1)C(=O)O [hydrogel (C), PFB-Tyr-Phe] | 43 | 5×10^3 Pa | viability [4]: ~100%; IC50 (MCF-7 cell): > 500 µM; viability [5]: ~100%; IC50 (Hela cell [6]): > 500 µM; viability [7]: ~100%; IC50 (CTX TNA2 cell [8]): > 500 µM; wound healing after 48 hours (Hela cell [3]): healed completely; healing effect (CTX TNA2 cell [9]): better than that of Control
4 | O=C(Cc1c(F)c(F)c(F)c(F)c1F)N[C@@H](Cc1ccccc1)C(=O)N[C@@H](Cc1ccccc1)C(=O)O [hydrogel (D), PFB-Phe-Phe] | 45 | 2×10^4 Pa | –
5 | C[C@H](NC(=O)[C@H](Cc1ccccc1)NC(=O)Cc1c(F)c(F)c(F)c(F)c1F)C(=O)O [hydrogel (E), PFB-Phe-Ala] | 48 | 4×10^3 Pa | wound healing after 48 hours (Hela cell [3]): healed completely
6 | CC(C)[C@H](NC(=O)[C@H](Cc1ccccc1)NC(=O)Cc1c(F)c(F)c(F)c(F)c1F)C(=O)O [hydrogel (F), PFB-Phe-Val] | 46 | 3×10^3 Pa | wound healing after 48 hours (Hela cell [3]): healed completely
7 | CC(C)[C@H](NC(=O)Cc1c(F)c(F)c(F)c(F)c1F)C(=O)N[C@@H](Cc1ccccc1)C(=O)O [hydrogel (G), PFB-Val-Phe] | 72 | 6×10^4 Pa | –
8 | CCC(C)[C@H](NC(=O)Cc1c(F)c(F)c(F)c(F)c1F)C(=O)N[C@@H](Cc1ccccc1)C(=O)O (stereo partly shown) [hydrogel (H), PFB-Ile-Phe] | 71 | 1×10^4 Pa | –
9 | CC(C)C[C@H](NC(=O)Cc1c(F)c(F)c(F)c(F)c1F)C(=O)N[C@@H](Cc1ccccc1)C(=O)O [hydrogel (I), PFB-Leu-Phe] | 55 | 2×10^3 Pa | state of hydrogel at 4° C. [10]: liquid; state of hydrogel at 37° C. [10]: colloidal state
10 | CC(C)C[C@@H](NC(=O)Cc1c(F)c(F)c(F)c(F)c1F)C(=O)N[C@H](Cc1ccccc1)C(=O)O [hydrogel (J), PFB-D-L-D-F] | 69 | 7×10^2 Pa | –

Second part, led by results:

Row | phase inversion temperature Tgel-sol [1] [°C] | storage modulus (G′) [2] | SMILES | also measured
11 | 46 | 6×10^3 Pa | O=C(Cc1ccc(F)cc1)N[C@@H](Cc1ccccc1)C(=O)N[C@@H](Cc1ccccc1)C(=O)O [hydrogel (K), 4-Fluorobenzyl-Phe-Phe] | –
12 | 38 | 4×10^2 Pa | O=C(Cc1c(F)c(F)c(F)c(F)c1F)NCC(=O)N[C@@H](Cc1ccccc1)C(=O)N[C@@H](Cc1ccccc1)C(=O)O [hydrogel (L), PFB-Gly-Phe-Phe] | state of hydrogel at 4° C. [10]: liquid; state of hydrogel at 37° C. [10]: colloidal state
13 | 42 | 1×10^3 Pa | CCC(C)[C@H](NC(=O)Cc1c(F)c(F)c(F)c(F)c1F)C(=O)N[C@@H](CCCCN)C(=O)N[C@H](C(=O)N[C@@H](C)C(=O)N[C@H](C(=O)O)C(C)C)C(C)C (stereo partly drawn) [hydrogel (M), PFB-Ile-Lys-Val-Ala-Val] ({Phenylacetyl(2,3,4,5,6-F5)}-[Ile(3ξ)]KVAV-OH) | –
14 | 66 | 1×10^4 Pa | CCC(C)[C@H](NC(=O)Cc1ccc(F)cc1)C(=O)N[C@@H](CCCCN)C(=O)N[C@H](C(=O)N[C@@H](C)C(=O)N[C@H](C(=O)O)C(C)C)C(C)C (stereo partly drawn) [hydrogel (N), 4-Fluorophenylacetic Acid-Ile-Lys-Val-Ala-Val] ({Phenylacetyl(4-F)}-[Ile(3ξ)]KVAV-OH) | –
15 | 62 | 6×10^3 Pa | CCC(C)[C@H](NC(=O)c1ccccc1)C(=O)N[C@@H](CCCCN)C(=O)N[C@H](C(=O)N[C@@H](C)C(=O)N[C@H](C(=O)O)C(C)C)C(C)C (stereo partly drawn) [hydrogel (O), Benzoic Acid-Ile-Lys-Val-Ala-Val] (Bz-[Ile(3ξ)]KVAV-OH) | –
16 | 65 | 6×10^3 Pa | CCC(C)[C@H](NC(=O)Cc1ccccc1)C(=O)N[C@@H](CCCCN)C(=O)N[C@H](C(=O)N[C@@H](C)C(=O)N[C@H](C(=O)O)C(C)C)C(C)C (stereo partly drawn) [hydrogel (P), Phenylacetic Acid-Ile-Lys-Val-Ala-Val] (PhAc-[Ile(3ξ)]KVAV-OH) | –
17 | > 90 | 1×10^4 Pa | CCC(C)[C@H](NC(=O)CCc1ccccc1)C(=O)N[C@@H](CCCCN)C(=O)N[C@H](C(=O)N[C@@H](C)C(=O)N[C@H](C(=O)O)C(C)C)C(C)C (stereo partly drawn) [hydrogel (Q), 3-Phenylpropionic Acid-Ile-Lys-Val-Ala-Val] (Hydrocinnamoyl-[Ile(3ξ)]KVAV-OH) | –
18 | 40 | 1.0×10^3 Pa | CCC(C)[C@H](NC(=O)[C@H](Cc1ccccc1)NC(=O)Cc1c(F)c(F)c(F)c(F)c1F)C(=O)N[C@@H](CCCCN)C(=O)N[C@H](C(=O)N[C@@H](C)C(=O)N[C@H](C(=O)O)C(C)C)C(C)C (stereo partly drawn) [hydrogel (R), PFB-Phe-Ile-Lys-Val-Ala-Val] ({Phenylacetyl(2,3,4,5,6-F5)}-F[Ile(3ξ)]KVAV-OH) | –
